Target: T1, PI3Kδ (Homo sapiens, UniProt O00329)
T1 construct: endogenous in cells; host or cells: Raji cells
Test: Cell Based Assay for PI3Kδ (AKT phosphorylation, AlphaScreen SureFire, anti-IgM stimulated Raji cells)
Settings: compounds 1 h, anti-IgM (3 μg/mL) 30 min, phosphorylation of AKT, read-out: PI3Kδ inhibition IC50
Protocol: [formula] C) Cell Based Assay for PI3Kδ
Raji cells were maintained in RPMI-1640 (Sigma) supplemented with 10% fetal bovine serum (heat inactivated) (FBS, Sigma), 100 U penicillin/mL, and […] streptomycin and incubated at 37° C. and 5% CO2. Cells were centrifuged and resuspended in a complete medium. The required numbers of cells were transferred to a tissue culture flask containing medium without serum for 1 h at 37° C., 5% CO2. Following 1 h serum starvation, cells were centrifuged and resuspended in Hank's Balanced Salt Solution (HBSS, Sigma) and seeded in at a density of 1 million cells/well in 96-well clear bottom plates. The cells were treated with test compounds for 1 h at 37° C., 5% CO2. Cells were then stimulated with anti-IgM (3 μg/mL) for 30 min. After Stimulation, cells were lysed with 15 μL of 5× lysis buffer and the plate was shaken on an orbital plate shaker at approximately 300 rpm for 10 min. AlphaScreen® SureFire® Cell-based Assay (Perkin-Elmer, Waltham, Mass., USA) was performed to measure phosphorylation of AKT, in the cells according to the manufacturer's instructions. The luminescence was measured using an alpha technology-compatible plate reader BMG Labtech, Germany) at 520-620 nm. Percentage inhibition was calculated according to formula: […]
IC50 values were calculated by plotting % inhibition against the respective concentrations of test compounds using GraphPad Prism 5.

T1 sequence (O00329 whole entry): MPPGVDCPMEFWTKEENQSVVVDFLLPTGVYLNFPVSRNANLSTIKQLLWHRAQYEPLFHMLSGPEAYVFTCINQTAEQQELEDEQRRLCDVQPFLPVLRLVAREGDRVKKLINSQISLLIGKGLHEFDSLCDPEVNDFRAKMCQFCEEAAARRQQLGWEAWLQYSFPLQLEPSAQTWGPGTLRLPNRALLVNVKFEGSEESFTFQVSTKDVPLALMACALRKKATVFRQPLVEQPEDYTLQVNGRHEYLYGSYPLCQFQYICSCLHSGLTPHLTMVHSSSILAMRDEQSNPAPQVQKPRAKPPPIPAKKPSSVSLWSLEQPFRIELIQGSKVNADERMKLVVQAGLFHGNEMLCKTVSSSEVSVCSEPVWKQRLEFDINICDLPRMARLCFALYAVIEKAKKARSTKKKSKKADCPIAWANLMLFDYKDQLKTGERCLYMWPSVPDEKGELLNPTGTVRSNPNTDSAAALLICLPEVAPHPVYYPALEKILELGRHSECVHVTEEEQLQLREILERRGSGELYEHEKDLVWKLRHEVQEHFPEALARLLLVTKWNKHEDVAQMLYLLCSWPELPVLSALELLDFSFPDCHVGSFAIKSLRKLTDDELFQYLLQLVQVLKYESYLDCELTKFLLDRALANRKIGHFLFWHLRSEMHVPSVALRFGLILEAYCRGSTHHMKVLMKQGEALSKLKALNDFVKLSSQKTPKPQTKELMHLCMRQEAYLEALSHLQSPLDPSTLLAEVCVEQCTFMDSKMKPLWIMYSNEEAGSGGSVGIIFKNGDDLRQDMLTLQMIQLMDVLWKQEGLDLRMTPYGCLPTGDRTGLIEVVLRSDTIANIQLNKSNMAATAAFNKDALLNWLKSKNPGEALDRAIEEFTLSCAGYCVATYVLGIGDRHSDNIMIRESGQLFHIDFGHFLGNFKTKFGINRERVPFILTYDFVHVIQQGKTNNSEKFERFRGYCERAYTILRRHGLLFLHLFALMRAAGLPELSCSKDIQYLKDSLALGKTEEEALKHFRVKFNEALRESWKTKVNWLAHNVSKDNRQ
T1 sequence (P27986 whole entry partner): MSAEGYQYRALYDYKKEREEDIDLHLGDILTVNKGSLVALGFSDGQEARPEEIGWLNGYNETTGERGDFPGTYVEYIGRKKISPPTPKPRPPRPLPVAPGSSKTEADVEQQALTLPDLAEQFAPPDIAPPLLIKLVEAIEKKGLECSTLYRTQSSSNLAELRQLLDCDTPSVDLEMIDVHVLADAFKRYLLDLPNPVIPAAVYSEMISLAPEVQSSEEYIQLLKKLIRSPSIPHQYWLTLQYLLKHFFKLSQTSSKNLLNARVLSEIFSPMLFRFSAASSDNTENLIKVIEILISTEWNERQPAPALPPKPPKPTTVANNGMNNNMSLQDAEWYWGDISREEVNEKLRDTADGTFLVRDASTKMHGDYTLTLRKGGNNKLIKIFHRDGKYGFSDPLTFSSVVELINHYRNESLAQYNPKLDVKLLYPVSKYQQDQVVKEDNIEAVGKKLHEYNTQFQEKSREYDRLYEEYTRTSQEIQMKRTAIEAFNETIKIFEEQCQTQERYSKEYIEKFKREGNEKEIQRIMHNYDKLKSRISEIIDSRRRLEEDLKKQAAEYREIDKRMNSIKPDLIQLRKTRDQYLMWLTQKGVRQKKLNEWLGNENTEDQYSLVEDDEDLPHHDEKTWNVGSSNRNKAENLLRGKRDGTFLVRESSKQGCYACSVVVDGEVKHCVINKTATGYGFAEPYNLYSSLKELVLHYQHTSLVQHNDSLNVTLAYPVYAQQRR

Row | SMILES | IC50 [nM]
1 | Cc1cccc2cc([C@H](C)Nc3ncnc(N)c3C#N)c(-c3ccc(F)c(F)c3)c(=O)n12 (single isomer, unassigned) [Compound 19a, 4-Amino-6-((1-(3-(3,4-difluorophenyl)-6-methyl-4-oxo-4H-quinolizin-2-yl)ethyl)amino)pyrimidine-5-carbonitrile] | 11 to 50
2 | Cc1cccc2cc([C@H](C)Nc3ncnc4[nH]cnc34)c(-c3cccc(F)c3)c(=O)n12 (single isomer, unassigned) [Compound 11a, 2-(1-((9H-purin-6-yl)amino)ethyl)-3-(3-fluorophenyl)-6-methyl-4H-quinolizin-4-one] | 0.1 to 10
3 | C[C@H](Nc1ncnc(N)c1C#N)c1cc2ccc(F)cn2c(=O)c1-c1cccc(F)c1 (single isomer, unassigned) [Compound 16a, 4-Amino-6-((1-(7-fluoro-3-(3-fluorophenyl)-4-oxo-4H-quinolizin-2-yl)ethyl)amino)pyrimidine-5-carbonitrile] | 0.1 to 10
4 | Cc1c(F)ccc2cc([C@H](C)Nc3ncnc(N)c3C#N)c(-c3cccc(F)c3)c(=O)n12 (single isomer, unassigned) [Compound 23a, 4-Amino-6-((1-(7-fluoro-3-(3-fluorophenyl)-6-methyl-4-oxo-4H-quinolizin-2-yl)ethyl)amino)pyrimidine-5-carbonitrile] | 0.1 to 10
5 | Cc1cccc2cc([C@H](C)Nc3nc(N)nc4[nH]cnc34)c(-c3cc(F)cc(F)c3)c(=O)n12 (single isomer, unassigned) [Compound 18a, 2-(1-((2-amino-9H-purin-6-yl)amino)ethyl)-3-(3,5-difluorophenyl)-6-methyl-4H-quinolizin-4-one] | 0.1 to 10
6 | Cc1c(F)ccc2cc([C@H](C)Nc3ncnc4[nH]cnc34)c(-c3ccccc3)c(=O)n12 (single isomer, unassigned) [Compound 24a, 2-(1-((9H-purin-6-yl)amino)ethyl)-7-fluoro-6-methyl-3-phenyl-4H-quinolizin-4-one] | 0.1 to 10
7 | C[C@H](Nc1nc(N)nc2[nH]cnc12)c1cc2ccc(F)cn2c(=O)c1-c1ccccc1 [Compound 33, (S)-2-(1-((2-amino-9H-purin-6-yl)amino)ethyl)-7-fluoro-3-phenyl-4H-quinolizin-4-one] | 0.1 to 10
8 | Cc1cc(F)cc(-c2c([C@H](C)Nc3ncnc(N)c3C#N)cc3ccc(F)cn3c2=O)c1 [Compound 29, (S)-4-amino-6-((1-(7-fluoro-3-(3-fluoro-5-methylphenyl)-4-oxo-4H-quinolizin-2-yl)ethyl)amino)pyrimidine-5-carbonitrile] | 11 to 50
9 | C[C@H](Nc1ncnc2[nH]cnc12)c1cc2ccccn2c(=O)c1-c1cccc(F)c1 (single isomer, unassigned) [Compound 5a, 2-(1-((9H-purin-6-yl)amino)ethyl)-3-(3-fluorophenyl)-4H-quinolizin-4-one] | 51 to 250
10 | C[C@H](Nc1nc(N)ncc1C#N)c1cc2ccc(F)cn2c(=O)c1-c1cccc(F)c1 (single isomer, unassigned) [Compound 20a, 2-Amino-4-((1-(7-fluoro-3-(3-fluorophenyl)-4-oxo-4H-quinolizin-2-yl)ethyl)amino)pyrimidine-5-carbonitrile] | 11 to 50
11 | CC[C@H](Nc1ncnc(N)c1C#N)c1cc2ccc(F)cn2c(=O)c1-c1ccccc1 (single isomer, unassigned) [Compound 41a, 4-Amino-6-((1-(7-fluoro-4-oxo-3-phenyl-4H-quinolizin-2-yl)propyl)amino)pyrimidine-5-carbonitrile] | 11 to 50
12 | Cc1cccc2cc([C@H](C)Nc3nc(N)nc4[nH]cnc34)c(-c3cccc(F)c3)c(=O)n12 (single isomer, unassigned) [Compound 12a, 2-(1-((2-Amino-9H-purin-6-yl)amino)ethyl)-3-(3-fluorophenyl)-6-methyl-4H-quinolizin-4-one] | 0.1 to 10
13 | Cc1nc(N)nc(N[C@@H](C)c2cc3ccc(F)cn3c(=O)c2-c2cccc(F)c2)c1C#N (single isomer, unassigned) [Compound 21a, 2-Amino-4-((1-(7-fluoro-3-(3-fluorophenyl)-4-oxo-4H-quinolizin-2-yl)ethyl)amino)-6-methylpyrimidine-5-carbonitrile] | 0.1 to 10

Second part, the compound after the results:

Row | IC50 [nM] | SMILES
14 | 11 to 50 | C[C@H](Nc1ncnc2[nH]cnc12)c1cc2ccc(F)cn2c(=O)c1-c1cc(F)cc(F)c1 [Compound 50, (S)-2-(1-((9H-purin-6-yl)amino)ethyl)-3-(3,5-difluorophenyl)-7-fluoro-4H-quinolizin-4-one]
15 | 0.1 to 10 | CC(c1cc2ccc(F)cn2c(=O)c1-c1ccccc1)n1nc(-c2ccc(F)c(O)c2)c2c(N)ncnc21 (stereo not shown) [Compound 61, 2-(1-(4-amino-3-(4-fluoro-3-hydroxyphenyl)-1H-pyrazolo[3,4-d]pyrimidin-1-yl)ethyl)-7-fluoro-3-phenyl-4H-quinolizin-4-one]
16 | 11 to 50 | CC[C@H](Nc1nc(N)nc2[nH]cnc12)c1cc2ccc(F)cn2c(=O)c1-c1cccc(F)c1 (single isomer, unassigned) [Compound 47b, 2-(1-((2-amino-9H-purin-6-yl)amino)propyl)-7-fluoro-3-(3-fluorophenyl)-4H-quinolizin-4-one]
17 | 0.1 to 10 | C[C@H](Nc1ncnc2cccnc12)c1cc2ccc(F)cn2c(=O)c1-c1ccccc1 [Compound 54, (S)-7-fluoro-3-phenyl-2-(1-(pyrido[3,2-d]pyrimidin-4-ylamino)ethyl)-4H-quinolizin-4-one]
18 | 0.1 to 10 | CC(c1cc2ccc(F)cn2c(=O)c1-c1ccccc1)n1nc(-c2cc(O)cc(F)c2)c2c(N)ncnc21 (stereo not shown) [Compound 59, 2-(1-(4-amino-3-(3-fluoro-5-hydroxyphenyl)-1H-pyrazolo[3,4-d]pyrimidin-1-yl)ethyl)-7-fluoro-3-phenyl-4H-quinolizin-4-one]
19 | 11 to 50 | COc1ccc(-c2nn([C@@H](C)c3cc4ccc(F)cn4c(=O)c3-c3ccccc3)c3ncnc(N)c23)cn1 (single isomer, unassigned) [Compound 64a, 2-(1-(4-amino-3-(6-methoxypyridin-3-yl)-1H-pyrazolo[3,4-d]pyrimidin-1-yl)ethyl)-7-fluoro-3-phenyl-4H-quinolizin-4-one]
20 | 11 to 50 | CC(c1cc2ccc(F)cn2c(=O)c1-c1ccccc1)n1nc(-c2ccc(O)c(F)c2)c2c(N)ncnc21 (stereo not shown) [Compound 60, 2-(1-(4-amino-3-(3-fluoro-4-hydroxyphenyl)-1H-pyrazolo[3,4-d]pyrimidin-1-yl)ethyl)-7-fluoro-3-phenyl-4H-quinolizin-4-one]
21 | 0.1 to 10 | C[C@H](Nc1ncnc(N)c1C#N)c1cc2ccc(F)cn2c(=O)c1-c1cc(F)cc(F)c1 [Compound 48, (S)-4-amino-6-((1-(3-(3,5-difluorophenyl)-7-fluoro-4-oxo-4H-quinolizin-2-yl)ethyl)amino)pyrimidine-5-carbonitrile]
22 | 0.1 to 10 | CC[C@H](Nc1nc(N)nc(N)c1C#N)c1cc2ccc(F)cn2c(=O)c1-c1ccccc1 (single isomer, unassigned) [Compound 42a, 2,4-diamino-6-((1-(7-fluoro-4-oxo-3-phenyl-4H-quinolizin-2-yl)propyl)amino)pyrimidine-5-carbonitrile]

From patent US9944639B2, “Quinolizinone derivatives as PI3K inhibitors” (Lupin Limited, priority 2014, dated 2018)
